# Several values for one entry are separate records, joined by “and”; a condition that tells them apart may be missing. Equal values may be shown once.
# Assays:
# Conditions in all cases: incubation time: 72 h
# CAL-148 [1] = assay: normalised viability (% of control), CellTiter-Blue; higher = more viable cells (about 100 = DMSO control)
# Description: (§1)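 DSRT, CellTiter-Blue viability, 72 h incubation. Signal is normalised to DMSO and benzethonium chloride controls. Value is the normalised response at dose 7.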
# CAL-51 [2] = assay: as above
# Description: as §1
# CAL-85-1 [3] = assay: as above
# Description: as §1
# DU-4475 [4] = assay: as above
# Description: as §1
# HDQ-P1 [5] = assay: as above
# Description: as §1
# MDA-MB-453 [6] = assay: as above
# Description: as §1
# BT-474 = assay: normalised response (% of control), CellTiter-Glo; higher = more viable cells (100 = DMSO, 0 = benzethonium chloride kill control)
# Procedure, shortened: (§2)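 Breast cancer cell lines (20 µl suspension) were seeded into 384-well plates holding compound at 5 concentrations in 10-fold steps over a compound-specific 10,000-fold range, then incubated 72 h. CellTox Green fluorescence (485/520 nm) was read first, then CellTiter-Glo luminescence after 10 min at room temperature. Each plate was normalised to 0.1 % DMSO (100) and a positive kill control (0). Each value is the normalised signal at a single concentration of the series.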
# BT-549 = assay: as above
# Procedure, shortened: as §2
# CAL-120 = assay: as above
# Procedure, shortened: as §2
# CAL-148 [7] = assay: as above
# Procedure, shortened: as §2
# CAL-51 [8] = assay: as above
# Procedure, shortened: as §2
# CAL-85-1 [9] = assay: as above
# Procedure, shortened: as §2
# DU-4475 [10] = assay: as above
# Procedure, shortened: as §2
# HCC1143 = assay: as above
# Procedure, shortened: as §2
# HCC1599 = assay: as above
# Procedure, shortened: as §2
# HCC1937 = assay: as above
# Procedure, shortened: as §2
# HDQ-P1 [11] = assay: as above
# Procedure, shortened: as §2
# Hs578T = assay: as above
# Procedure, shortened: as §2
# MCF-10A = assay: as above
# Procedure, shortened: as §2
# MDA-MB-231 = assay: as above
# Procedure, shortened: as §2
# MDA-MB-436 = assay: as above
# Procedure, shortened: as §2
# MDA-MB-453 [12] = assay: as above
# Procedure, shortened: as §2
# MDA-MB-468 = assay: as above
# Procedure, shortened: as §2
# MFM-223 = assay: as above
# Procedure, shortened: as §2
# SK-BR-3 = assay: as above
# Procedure, shortened: as §2
Compound,normalised viability (CAL-148 [1]),normalised viability (CAL-51 [2]),normalised viability (CAL-85-1 [3]),normalised viability (DU-4475 [4]),normalised viability (HDQ-P1 [5]),normalised viability (MDA-MB-453 [6]),normalised response (BT-474) [%],normalised response (BT-549) [%],normalised response (CAL-120) [%],normalised response (CAL-148 [7]) [%],normalised response (CAL-51 [8]) [%],normalised response (CAL-85-1 [9]) [%],normalised response (DU-4475 [10]) [%],normalised response (HCC1143) [%],normalised response (HCC1599) [%],normalised response (HCC1937) [%],normalised response (HDQ-P1 [11]) [%],normalised response (Hs578T) [%],normalised response (MCF-10A) [%],normalised response (MDA-MB-231) [%],normalised response (MDA-MB-436) [%],normalised response (MDA-MB-453 [12]) [%],normalised response (MDA-MB-468) [%],normalised response (MFM-223) [%],normalised response (SK-BR-3) [%]
Nc1ccccc1NC(=O)c1ccc(CNc2nccc(-c3cccnc3)n2)cc1 [Mocetinostat] (1000 nM),65.5%,77.8%,68.7%,39.2%,90.1%,41.6%,80.4,66,83.8,77,62.9,87.9,76.3,91,81.2,67.8,80.8,74,140,77.7,78.2,62.8,72,77,78
COc1cc(CCc2cc(NC(=O)c3ccc(N4CC(C)NC(C)C4)cc3)n[nH]2)cc(OC)c1 (configuration not stated) [AZD4547] (100 nM),106%,101%,74.9%,84.3%,106%,78.1%,102,88.4,80,104,91.4,96.2,96.9,93.1,107,93.4,104,88.1,86.2,106,99.2,90.4,92.2,53.1,89.3
C[C@]12O[C@H](C[C@]1(O)CO)n1c3ccccc3c3c4c(c5c6ccccc6n2c5c31)CNC4=O [Lestaurtinib] (100 nM),104%,110%,99.5%,79.6%,87.8%,75.1%,83.6,76.1,62.8,83.9,83.8,94.9,74.1,79.4,67.2,91,95.8,80.2,62.3,92.1,86,64.4,49.7,80.9,62.4
Cc1nc(Nc2ncc(C(=O)Nc3c(C)cccc3Cl)s2)cc(N2CCN(CCO)CC2)n1 [Dasatinib] (100 nM),109% and 93.3%,47.8% and 48.7%,56.4% and 53%,95.1% and 108%,15.8% and 11.4%,88.2% and 94.5%,54.8,61.7,57.5,102,51.6,61.8,100,67.9,118,69.7,35.3,61.5,32.5,43.8,83.4,100,75.4,88.5,104
CC[C@@]1(O)C(=O)OCc2c1cc1n(c2=O)Cc2cc3c(CN(C)C)c(O)ccc3nc2-1 [Topotecan] (100 nM),45.5%,73.3%,85.7%,61.2%,102%,90.4%,,,,,,,,,,,,,,,,,,,
CCC/C=C/C=C/C(=O)O[C@H]1/C(=C/C(=O)OC)C[C@H]2C[C@H]([C@@H](C)O)OC(=O)C[C@H](O)C[C@@H]3C[C@H](OC(C)=O)C(C)(C)[C@](O)(C[C@@H]4C/C(=C/C(=O)OC)C[C@H](/C=C/C(C)(C)[C@]1(O)O2)O4)O3 [Bryostatin 1] (10 nM),98.1%,109%,98.7%,76.5%,118%,92.2%,87.2,94.2,101,109,69.1,97.1,93.7,104,111,97.8,91.6,76.9,103,89.2,99.6,96.8,100,108,69.7
Cc1ccc(Nc2nccc(N(C)c3ccc4c(C)n(C)nc4c3)n2)cc1S(N)(=O)=O [Pazopanib] (1000 nM),85.6%,84.2%,87.6%,107%,99.8%,68.8%,93.9,98.4,87.3,98.6,104,101,104,106,106,94.5,100,95.6,92.5,106,103,113,103,66.6,102
CNC(=O)c1cc(Oc2ccc(NC(=O)Nc3ccc(Cl)c(C(F)(F)F)c3)cc2)ccn1 [Sorafenib] (100 nM),108%,106%,90.1% and 102%,94.2% and 117%,102% and 77.9%,90.8% and 101%,101,106,111,110,83.9,107,105,105,98.7,104,103,90.6,122,104,109,90.5,117,104,104
Nc1cccc2c1CN(C1CCC(=O)NC1=O)C2=O (configuration not stated) [Lenalidomide] (1000 nM),95.3% and 104%,103% and 100%,80% and 74.3%,110% and 88.9%,110% and 96.9%,85.6% and 104%,97.7,97.6,93.8,98.2,99,108,102,101,116,100,101,104,103,105,99.9,87.1,111,97.6,101
O=C(Nc1c[nH]nc1-c1nc2ccc(CN3CCOCC3)cc2[nH]1)NC1CC1 [AT9283] (1000 nM),67.3%,51.3%,55.4%,10.3%,50.3%,42%,,,,,,,,,,,,,,,,,,,

# — the supplement of paper PMC4862054
